Laboratory results from US20090023775A1, “1-[2-(4-BENZYL-4-HYDROXY-PIPERIDIN-1 -YL )-ETHYL]-3-(2-METHYL-QUINOLIN- 4-YL)- UREA AS CRYSTALLINE SULFATE SALT” (Actelion Pharmaceuticals Ltd., priority 2004, published 2009).

Assays:
[1] = Dynamic vapor sorption (DVS), gravimetric measurement under controlled relative humidity; type: physicochemical
Description: X-ray diffraction patterns (XRD) were recorded on a Bruker D5000, using a Cu-Kalpha (1.5418 Å) source, a 40 kV -30 mA generator, in a range of 3 et 40° (2theta). DVS is performed as gravimetric measurement (10-30 mg of sample), at a given temperature, under controlled relative humidity. Measurements are performed on a SMS (Surface Measurement Systems) DVS 1000. First, the sample is dried (0% RH) under dry nitrogen at the experiment temperature. Then a cycle of relative humidity (RH) is applied to the sample (generally increase by steps e.g. 20, 40, 60 and 80% RH and decrease to 0% RH by the same steps). The duration of each step of RH is sufficient to reach a weight equilibrium.
Table 2 summarizes the results of two cycles (0 to 85% relative humidity) in a DVS measurement (40° C.) of 1-[2-(4-benzyl-4-hydroxy-piperidin-1-yl)-ethyl]-3-(2-methyl-quinolin-4-yl)-urea sulfate trihydrate described in Example 1.
Table 4 summarizes the results of three cycles (0 to 85% relative humidity) in a DVS measurement (25° C.) of 1-[2-(4-benzyl-4-hydroxy-piperidin-1-yl)-ethyl]-3-(2-methyl-quinolin-4-yl)-urea sulfate trihydrate described in Example 2.

urotensin II receptor = target: T1, urotensin II receptor (Homo sapiens, UniProt Q9UKP6); details: Clozel et al., J. Pharmcol. Exp. Ther. 2004, 311, 204-212; cited from earlier work
T1 sequence (Q9UKP6 1-389): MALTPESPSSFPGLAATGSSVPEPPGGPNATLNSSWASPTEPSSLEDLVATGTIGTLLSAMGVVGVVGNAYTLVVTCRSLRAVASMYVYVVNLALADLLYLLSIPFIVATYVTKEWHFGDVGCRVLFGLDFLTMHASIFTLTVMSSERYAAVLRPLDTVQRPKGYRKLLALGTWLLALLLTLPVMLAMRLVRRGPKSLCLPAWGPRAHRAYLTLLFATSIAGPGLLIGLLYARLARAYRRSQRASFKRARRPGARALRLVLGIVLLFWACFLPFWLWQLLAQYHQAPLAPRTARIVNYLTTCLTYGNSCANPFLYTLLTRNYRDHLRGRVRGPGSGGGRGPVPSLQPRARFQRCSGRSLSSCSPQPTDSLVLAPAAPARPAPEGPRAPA

[2] = Behaviour of the free base at higher temperature and higher humidity; type: physicochemical
From the text: Therefore, the said compound of formula I as free base is not suitable as a pharmaceutical product since it is not easy to handle in pharmaceutical preparations. In addition, large scale production and storage of the said compound of formula I causes problems due to the properties mentioned above.

[3] = DVS 40° C., Cycle 1, target RH 0.0%
[4] = DVS 40° C., Cycle 1, target RH 20.0%
[5] = DVS 40° C., Cycle 1, target RH 40.0%
[6] = DVS 40° C., Cycle 1, target RH 60.0%
[7] = DVS 40° C., Cycle 1, target RH 85.0%
[8] = DVS 40° C., Cycle 2, target RH 0.0%
[9] = DVS 40° C., Cycle 2, target RH 20.0%
[10] = DVS 40° C., Cycle 2, target RH 40.0%
[11] = DVS 40° C., Cycle 2, target RH 60.0%
[12] = DVS 40° C., Cycle 2, target RH 85.0%
[13] = DVS 25° C., Cycle 1, target RH 0.0%
[14] = DVS 25° C., Cycle 1, target RH 20.0%
[15] = DVS 25° C., Cycle 1, target RH 40.0%
[16] = DVS 25° C., Cycle 1, target RH 60.0%
[17] = DVS 25° C., Cycle 1, target RH 85.0%
[18] = DVS 25° C., Cycle 2, target RH 0.0%
[19] = DVS 25° C., Cycle 2, target RH 20.0%
[20] = DVS 25° C., Cycle 2, target RH 40.0%
[21] = DVS 25° C., Cycle 2, target RH 60.0%
[22] = DVS 25° C., Cycle 2, target RH 85.0%
[23] = DVS 25° C., Cycle 3, target RH 0.0%
[24] = DVS 25° C., Cycle 3, target RH 85.0%
[25] = higher temperature and higher humidity

Q: Which results are given for `Cc1cc(NC(=O)NCCN2CCC(O)(Cc3ccccc3)CC2)c2ccccc2n1.O.O.O.O=S(=O)(O)O` [Example 1, 1-[2-(4-Benzyl-4-hydroxy-piperidin-1-yl)-ethyl]-3-(2-methyl-quinolin-4-yl)-urea Sulfate Trihydrate]?
A: Change In Mass (%) Desorption [1, 3]: −0.02%; Change In Mass (%) Sorption [1, 3]: 0.00%; Change In Mass (%) Desorption [1, 4]: 9.97%; Change In Mass (%) Hysteresis [1, 4]: 0.26%; Change In Mass (%) Sorption [1, 4]: 9.71%; Change In Mass (%) Desorption [1, 5]: 10.26%; Change In Mass (%) Hysteresis [1, 5]: 0.03%; Change In Mass (%) Sorption [1, 5]: 10.23%; Change In Mass (%) Desorption [1, 6]: 10.40%; Change In Mass (%) Hysteresis [1, 6]: −0.02%; Change In Mass (%) Sorption [1, 6]: 10.42%; Change In Mass (%) Desorption [1, 7]: 10.68%; Change In Mass (%) Sorption [1, 7]: 10.68%; Change In Mass (%) Desorption [1, 8]: −0.02%; Change In Mass (%) Sorption [1, 8]: −0.02%; Change In Mass (%) Desorption [1, 9]: 9.98%; Change In Mass (%) Hysteresis [1, 9]: 0.17%; Change In Mass (%) Sorption [1, 9]: 9.81%; Change In Mass (%) Desorption [1, 10]: 10.28%; Change In Mass (%) Hysteresis [1, 10]: 0.02%; Change In Mass (%) Sorption [1, 10]: 10.26%; Change In Mass (%) Desorption [1, 11]: 10.42%; Change In Mass (%) Hysteresis [1, 11]: 0.01%; Change In Mass (%) Sorption [1, 11]: 10.42%; Change In Mass (%) Desorption [1, 12]: 10.68%; Change In Mass (%) Sorption [1, 12]: 10.68%

Q: For `Cc1cc(NC(=O)NCCN2CCC(O)(Cc3ccccc3)CC2)c2ccccc2n1.O.O.O.O=S(=O)(O)O` [Example 2, 1-[2-(4-Benzyl-4-hydroxy-piperidin-1-yl)-ethyl]-3-(2-methyl-quinolin-4-yl)-urea Sulfate Trihydrate], which “Change In Mass (%) Desorption” value [1, 13] is on record?
A: −0.01%

Q: And the “Change In Mass (%) Sorption” value [1, 13]?
A: 0.00%

Q: What about the “Change In Mass (%) Desorption” value [1, 14] of the same compound?
A: 11.94%

Q: What about the “Change In Mass (%) Hysteresis” value [1, 14] of the same compound?
A: 0.57%

Q: What about the “Change In Mass (%) Sorption” value [1, 14] of the same compound?
A: 11.38%

Q: And the “Change In Mass (%) Desorption” value [1, 15]?
A: 12.31%

Q: What about the “Change In Mass (%) Hysteresis” value [1, 15] of the same compound?
A: 0.32%

Q: And the “Change In Mass (%) Sorption” value [1, 15]?
A: 12.00%

Q: What about the “Change In Mass (%) Desorption” value [1, 16] of the same compound?
A: 12.49%

Q: What about the “Change In Mass (%) Hysteresis” value [1, 16] of the same compound?
A: 0.08%

Q: And the “Change In Mass (%) Sorption” value [1, 16]?
A: 12.41%

Q: What about the “Change In Mass (%) Desorption” value [1, 17] of the same compound?
A: 12.70%

Q: What about the “Change In Mass (%) Sorption” value [1, 17] of the same compound?
A: 12.70%

Q: And the “Change In Mass (%) Desorption” value [1, 18]?
A: 0.00%

Q: And the “Change In Mass (%) Sorption” value [1, 18]?
A: −0.01%

Q: What about the “Change In Mass (%) Desorption” value [1, 19] of the same compound?
A: 11.95%

Q: And the “Change In Mass (%) Hysteresis” value [1, 19]?
A: 0.43%

Q: What about the “Change In Mass (%) Sorption” value [1, 19] of the same compound?
A: 11.52%

Q: And the “Change In Mass (%) Desorption” value [1, 20]?
A: 12.32%

Q: What about the “Change In Mass (%) Hysteresis” value [1, 20] of the same compound?
A: 0.25%

Q: And the “Change In Mass (%) Sorption” value [1, 20]?
A: 12.06%

Q: What about the “Change In Mass (%) Desorption” value [1, 21] of the same compound?
A: 12.49%

Q: And the “Change In Mass (%) Hysteresis” value [1, 21]?
A: 0.07%

Q: What about the “Change In Mass (%) Sorption” value [1, 21] of the same compound?
A: 12.41%

Q: What about the “Change In Mass (%) Desorption” value [1, 22] of the same compound?
A: 12.70%

Q: And the “Change In Mass (%) Sorption” value [1, 22]?
A: 12.70%

Q: What about the “Change In Mass (%) Desorption” value [1, 23] of the same compound?
A: 0.08%

Q: And the “Change In Mass (%) Sorption” value [1, 23]?
A: 0.00%

Q: What about the “Change In Mass (%) Sorption” value ([1]; DVS 25° C., Cycle 3, target RH 20.0%) of the same compound?
A: 11.55%

Q: What about the “Change In Mass (%) Sorption” value ([1]; DVS 25° C., Cycle 3, target RH 40.0%) of the same compound?
A: 12.07%

Q: And the “Change In Mass (%) Sorption” value ([1]; DVS 25° C., Cycle 3, target RH 60.0%)?
A: 12.40%

Q: What about the “Change In Mass (%) Desorption” value [1, 24] of the same compound?
A: 12.69%

Q: What about the “Change In Mass (%) Sorption” value [1, 24] of the same compound?
A: 12.69%

Q: Which “urotensin II receptor antagonist activity” value (urotensin II receptor) does the source give for `Cc1cc(NC(=O)NCCN2CCC(O)(Cc3ccccc3)CC2)c2ccccc2n1` [formula I, 1-[2-(4-Benzyl-4-hydroxy-piperidin-1-yl)-ethyl]-3-(2-methyl-quinolin-4-yl)-urea] here?
A: potent urotensin II receptor antagonist

Q: And the hygroscopicity [2]?
A: hygroscopic

Q: What about the agglomeration [2, 25] of the same compound?
A: agglomerates to a substance cake

Q: And the colour stability [2, 25]?
A: its colour changes at higher temperature and higher humidity
